Oligonucleotides are given in HELM: sugar(base)linkage, 5' to 3'; d 2'-deoxyribose, r ribose, m 2'-O-methylribose, p phosphate. ss, as = sense and antisense strand
Further: test concentration or dose not given here.

The target in this data set is Mmp7 (rat). Description: reporter assay of Huesken 2005. To be noted: siRNA. For orientation: In a reporter assay the amount or activity of a reporter protein is the signal.
For the substance “RNA1{r(U)p.r(A)p.r(G)p.r(G)p.r(A)p.r(A)p.r(A)p.r(U)p.r(U)p.r(U)p.r(U)p.r(A)p.r(C)p.r(C)p.r(U)p.r(U)p.r(C)p.r(A)p.r(C)p.d(T)p.d(T)}|RNA2{r(G)p.r(U)p.r(G)p.r(A)p.r(A)p.r(G)p.r(G)p.r(U)p.r(A)p.r(A)p.r(A)p.r(A)p.r(U)p.r(U)p.r(U)p.r(C)p.r(C)p.r(U)p.r(A)p.d(A)p.d(G)}$$$RNA1{StrandType:ss}|RNA2{StrandType:as}$”, the normalised inhibition (eCFP-eYFP dual reporter) came to 86.2%.

For the substance “RNA1{r(U)p.r(A)p.r(U)p.r(C)p.r(U)p.r(U)p.r(A)p.r(G)p.r(G)p.r(A)p.r(A)p.r(A)p.r(U)p.r(U)p.r(U)p.r(U)p.r(A)p.r(C)p.r(C)p.d(T)p.d(T)}|RNA2{r(G)p.r(G)p.r(U)p.r(A)p.r(A)p.r(A)p.r(A)p.r(U)p.r(U)p.r(U)p.r(C)p.r(C)p.r(U)p.r(A)p.r(A)p.r(G)p.r(A)p.r(U)p.r(A)p.d(A)p.d(T)}$$$RNA1{StrandType:ss}|RNA2{StrandType:as}$”, the normalised inhibition (eCFP-eYFP dual reporter) amounted to 28.4%.

Turning to “RNA1{r(U)p.r(C)p.r(A)p.r(A)p.r(G)p.r(A)p.r(G)p.r(G)p.r(G)p.r(U)p.r(U)p.r(A)p.r(G)p.r(U)p.r(U)p.r(G)p.r(G)p.r(G)p.r(G)p.d(T)p.d(T)}|RNA2{r(C)p.r(C)p.r(C)p.r(C)p.r(A)p.r(A)p.r(C)p.r(U)p.r(A)p.r(A)p.r(C)p.r(C)p.r(C)p.r(U)p.r(C)p.r(U)p.r(U)p.r(G)p.r(A)p.d(A)p.d(G)}$$$RNA1{StrandType:ss}|RNA2{StrandType:as}$”, the normalised inhibition (eCFP-eYFP dual reporter) stood at 40.8%.

“RNA1{r(U)p.r(C)p.r(A)p.r(C)p.r(G)p.r(A)p.r(C)p.r(U)p.r(C)p.r(U)p.r(A)p.r(A)p.r(A)p.r(A)p.r(C)p.r(A)p.r(A)p.r(A)p.r(G)p.d(T)p.d(T)}|RNA2{r(C)p.r(U)p.r(U)p.r(U)p.r(G)p.r(U)p.r(U)p.r(U)p.r(U)p.r(A)p.r(G)p.r(A)p.r(G)p.r(U)p.r(C)p.r(G)p.r(U)p.r(G)p.r(A)p.d(A)p.d(G)}$$$RNA1{StrandType:ss}|RNA2{StrandType:as}$”: the normalised inhibition (eCFP-eYFP dual reporter) is 108%.

In the case of “RNA1{r(U)p.r(C)p.r(A)p.r(U)p.r(A)p.r(A)p.r(U)p.r(U)p.r(G)p.r(G)p.r(C)p.r(U)p.r(U)p.r(C)p.r(G)p.r(C)p.r(A)p.r(A)p.r(G)p.d(T)p.d(T)}|RNA2{r(C)p.r(U)p.r(U)p.r(G)p.r(C)p.r(G)p.r(A)p.r(A)p.r(G)p.r(C)p.r(C)p.r(A)p.r(A)p.r(U)p.r(U)p.r(A)p.r(U)p.r(G)p.r(A)p.d(T)p.d(G)}$$$RNA1{StrandType:ss}|RNA2{StrandType:as}$”, the normalised inhibition (eCFP-eYFP dual reporter) stood at 75.5%.

Turning to “RNA1{r(U)p.r(C)p.r(A)p.r(U)p.r(U)p.r(C)p.r(A)p.r(G)p.r(A)p.r(A)p.r(G)p.r(A)p.r(C)p.r(U)p.r(U)p.r(C)p.r(A)p.r(G)p.r(U)p.d(T)p.d(T)}|RNA2{r(A)p.r(C)p.r(U)p.r(G)p.r(A)p.r(A)p.r(G)p.r(U)p.r(C)p.r(U)p.r(U)p.r(C)p.r(U)p.r(G)p.r(A)p.r(A)p.r(U)p.r(G)p.r(A)p.d(T)p.d(C)}$$$RNA1{StrandType:ss}|RNA2{StrandType:as}$”, the normalised inhibition (eCFP-eYFP dual reporter) worked out at 54.7%.

“RNA1{r(U)p.r(C)p.r(U)p.r(A)p.r(A)p.r(A)p.r(A)p.r(C)p.r(A)p.r(A)p.r(A)p.r(G)p.r(A)p.r(A)p.r(G)p.r(G)p.r(C)p.r(C)p.r(A)p.d(T)p.d(T)}|RNA2{r(U)p.r(G)p.r(G)p.r(C)p.r(C)p.r(U)p.r(U)p.r(C)p.r(U)p.r(U)p.r(U)p.r(G)p.r(U)p.r(U)p.r(U)p.r(U)p.r(A)p.r(G)p.r(A)p.d(G)p.d(T)}$$$RNA1{StrandType:ss}|RNA2{StrandType:as}$”: the normalised inhibition (eCFP-eYFP dual reporter) came to 95.7%.

On to “RNA1{r(U)p.r(C)p.r(U)p.r(G)p.r(U)p.r(G)p.r(A)p.r(U)p.r(G)p.r(U)p.r(A)p.r(C)p.r(C)p.r(C)p.r(U)p.r(A)p.r(C)p.r(C)p.r(U)p.d(T)p.d(T)}|RNA2{r(A)p.r(G)p.r(G)p.r(U)p.r(A)p.r(G)p.r(G)p.r(G)p.r(U)p.r(A)p.r(C)p.r(A)p.r(U)p.r(C)p.r(A)p.r(C)p.r(A)p.r(G)p.r(A)p.d(A)p.d(C)}$$$RNA1{StrandType:ss}|RNA2{StrandType:as}$”, for which the normalised inhibition (eCFP-eYFP dual reporter) is 55.2%.

In the case of “RNA1{r(U)p.r(C)p.r(U)p.r(G)p.r(U)p.r(U)p.r(C)p.r(C)p.r(C)p.r(A)p.r(G)p.r(U)p.r(U)p.r(C)p.r(U)p.r(G)p.r(U)p.r(G)p.r(A)p.d(T)p.d(T)}|RNA2{r(U)p.r(C)p.r(A)p.r(C)p.r(A)p.r(G)p.r(A)p.r(A)p.r(C)p.r(U)p.r(G)p.r(G)p.r(G)p.r(A)p.r(A)p.r(C)p.r(A)p.r(G)p.r(A)p.d(A)p.d(G)}$$$RNA1{StrandType:ss}|RNA2{StrandType:as}$”, the normalised inhibition (eCFP-eYFP dual reporter) was 99.6%.

As for “RNA1{r(U)p.r(G)p.r(A)p.r(A)p.r(C)p.r(U)p.r(U)p.r(C)p.r(C)p.r(U)p.r(G)p.r(U)p.r(U)p.r(U)p.r(G)p.r(U)p.r(U)p.r(G)p.r(C)p.d(T)p.d(T)}|RNA2{r(G)p.r(C)p.r(A)p.r(A)p.r(C)p.r(A)p.r(A)p.r(A)p.r(C)p.r(A)p.r(G)p.r(G)p.r(A)p.r(A)p.r(G)p.r(U)p.r(U)p.r(C)p.r(A)p.d(C)p.d(G)}$$$RNA1{StrandType:ss}|RNA2{StrandType:as}$”, the normalised inhibition (eCFP-eYFP dual reporter) was 33.7%.

With “RNA1{r(U)p.r(G)p.r(A)p.r(G)p.r(G)p.r(G)p.r(A)p.r(A)p.r(A)p.r(U)p.r(G)p.r(C)p.r(A)p.r(G)p.r(A)p.r(A)p.r(G)p.r(U)p.r(U)p.d(T)p.d(T)}|RNA2{r(A)p.r(A)p.r(C)p.r(U)p.r(U)p.r(C)p.r(U)p.r(G)p.r(C)p.r(A)p.r(U)p.r(U)p.r(U)p.r(C)p.r(C)p.r(C)p.r(U)p.r(C)p.r(A)p.d(G)p.d(T)}$$$RNA1{StrandType:ss}|RNA2{StrandType:as}$”, the normalised inhibition (eCFP-eYFP dual reporter) was found to be 104%.

Take “RNA1{r(U)p.r(G)p.r(A)p.r(G)p.r(U)p.r(A)p.r(C)p.r(U)p.r(G)p.r(G)p.r(A)p.r(C)p.r(G)p.r(G)p.r(A)p.r(U)p.r(G)p.r(G)p.r(U)p.d(T)p.d(T)}|RNA2{r(A)p.r(C)p.r(C)p.r(A)p.r(U)p.r(C)p.r(C)p.r(G)p.r(U)p.r(C)p.r(C)p.r(A)p.r(G)p.r(U)p.r(A)p.r(C)p.r(U)p.r(C)p.r(A)p.d(T)p.d(C)}$$$RNA1{StrandType:ss}|RNA2{StrandType:as}$”: the normalised inhibition (eCFP-eYFP dual reporter) is 63.1%.

Take “RNA1{r(U)p.r(G)p.r(C)p.r(A)p.r(G)p.r(A)p.r(A)p.r(G)p.r(C)p.r(C)p.r(C)p.r(A)p.r(G)p.r(G)p.r(U)p.r(G)p.r(U)p.r(G)p.r(G)p.d(T)p.d(T)}|RNA2{r(C)p.r(C)p.r(A)p.r(C)p.r(A)p.r(C)p.r(C)p.r(U)p.r(G)p.r(G)p.r(G)p.r(C)p.r(U)p.r(U)p.r(C)p.r(U)p.r(G)p.r(C)p.r(A)p.d(T)p.d(T)}$$$RNA1{StrandType:ss}|RNA2{StrandType:as}$”: the normalised inhibition (eCFP-eYFP dual reporter) is 61.3%.

Take “RNA1{r(U)p.r(G)p.r(C)p.r(A)p.r(G)p.r(A)p.r(A)p.r(U)p.r(U)p.r(C)p.r(U)p.r(C)p.r(A)p.r(C)p.r(U)p.r(A)p.r(A)p.r(U)p.r(G)p.d(T)p.d(T)}|RNA2{r(C)p.r(A)p.r(U)p.r(U)p.r(A)p.r(G)p.r(U)p.r(G)p.r(A)p.r(G)p.r(A)p.r(A)p.r(U)p.r(U)p.r(C)p.r(U)p.r(G)p.r(C)p.r(A)p.d(A)p.d(C)}$$$RNA1{StrandType:ss}|RNA2{StrandType:as}$”: the normalised inhibition (eCFP-eYFP dual reporter) was 72.9%.

The values above are taken from the OligoGym collection.
